The text below walks through data of US20240173432A1, “Compositions and Methods for Treatment of Myotonic Dystrophy Type 1 with CRISPR/SluCas9” (Vertex Pharmaceuticals Incorporated, priority 2021, published 2024).

The test system of data set [1] is CTG repeat in the 3′ UTR of human DMPK gene. The data set is described as follows: Dual-cut screening: CTG repeat excision efficiency by loss-of-signal ddPCR. Particulars: sgRNA pair, primary DM1 patient myoblasts; for Excision efficiency (by ddPCR): 3 μM DNA-PKi Compound 6 for 48 hours; for Excision efficiency by ddPCR (Vehicle): vehicle (DMSO). The format is cell-based. The method, then:
RNPs were assembled with recombinant SluCas9 protein and chemically modified sgRNAs at a ratio of 1:3 (protein:sgRNA). For SINGLE-cut screening, RNP complexes were assembled with 30 pmol of SluCas9 and 90 pmol of sgRNA in P5 Primary Cell Nucleofector Solution (Lonza). After incubation at room temperature for 20 minutes, 10 μL of RNP complex were mixed with two hundred thousand of primary myoblasts resuspended in 10 μL of P5 Nucleofector Solution. For DOUBLE-cut screening, RNP complexes were first assembled for individual sgRNAs with 20 pmol of SluCas9 protein and 60 pmol of sgRNAs in 5 μL of P5 Nucleofector Solution. After incubation at room temperature for 20 minutes, the two RNP complexes (one for upstream sgRNA and one for downstream sgRNA) were mixed at 1:1 ratio and then further mixed with two hundred thousand of primary myoblasts resuspended in 10 μL of P5 Nucleofector Solution.
The Nucleofector 96-well Shuttle System (Lonza) was used to deliver the SluCa9/sgRNA RNPs into primary DM1 patient myoblasts using the nucleofection program CM138. Following nucleofection, myoblasts from each well of nucleofection shuttle were split into six wells of the 96-well cell culture plate (Greiner, 655090) coated with matrigel. The first three wells were treated with DMSO for 48 hrs before changing to fresh myoblast growth medium, and the other three wells were treated with 3 μM of DNA-PKi Compound 6 for 48 hrs before changing to fresh myoblast growth medium. 72 hrs post nucleofection, two wells of DMSO-treated myoblasts and two wells of DNA-PKi-treated myoblasts from each nucleofection were harvested for genomic DNA extraction using the Kingfisher Flex purification system (Thermal Fisher), whereas one well of DMSO-treated myoblasts and one well of DNA-PKi-treated myoblasts were stained for RNA foci by FISH staining.
The primers and probes of ddPCR are designed using the online primer design software Primer3Plus (http://www.bioinformatics.nl/cgi-bin/primer3plus/primer3plus.cgi). In some embodiments, two target primers/probe sets were used to detect CTG repeat excision, and a reference primers/probe set were used to amplify a region located in Exon 1 of human DMPK gene and to serve as a reference control for the target sets. The 24 μL of ddPCR reaction consists of 12 μL of Supermix for Probes (no dUTP) (Bio-Rad Laboratories), 1 μL of Reference primers mix (21.6 μM), 1 μL of Reference probe (6 μM), 1 μL of Target primers mix (21.6 μM), 1 μL of Target probe (6 μM), and 8 μL of sample genomic DNA. Droplets were generated using probe oil with the QX200 Droplet Generator (Bio-Rad Laboratories). Droplets were transferred to a 96-well PCR plate, sealed and cycled in a C1000 deep well Thermocycler (Bio-Rad Laboratories) under the following cycling protocol: 1 cycle at 95° C. for 10 min; 40 cycles of 94° C. for 30 see, and 58° C. for 1 min; 1 cycle at 98° C. for 10 min (for enzyme inactivation). The cycled plate was then transferred and read in the FAM and HEX channels using the Bio-Rad QX200 Droplet Reader (Bio-Rad Laboratories). ddPCR analysis is performed with the Bio-Rad QuantaSoft Pro Software.
To assess the efficiency of SluCas9 sgRNA pairs for inducing CTG repeat excision, Dual-cut screening was performed in which individual SluCas9 sgRNAs and recombinant SluCas9 protein were assembled into ribonucleoprotein (RNP) and delivered into primary DM1 patient myoblasts. Nucleofected myoblasts were treated with either DMSO (vehicle) or 3 μM of DNA-dependent Protein Kinase Inhibitor (DNA-PKi) Compound 6 for 48 hours. 72 hours post-nucleofection, myoblasts were subjected to either genomic DNA isolation or RNA foci staining by fluorescence in situ hybridization (FISH).
CRISPR repeat excision efficiency was assessed for each of the 88 pairs (FIG. 8A-B and Table 5). CTG repeat excision efficiency percentages are shown for vehicle (DMSO; white bars) and with DNA-PKi (black bars) (FIG. 8B and Table 5).

Data set [2] concerns CUG foci in primary DM1 patient myoblasts. In words: Dual-cut screening: FISH staining of CUG RNA foci. The format is cell-based, human. Particulars: sgRNA pair, primary DM1 patient myoblasts; for % of CUG foci free nuclei (DNA-PKi): 3 μM DNA-PKi Compound 6 for 48 hours; for % of CUG foci free nuclei (Vehicle): vehicle (DMSO). An outline of the steps: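 SluCas9 RNPs (protein:sgRNA 1:3; 20 pmol SluCas9 + 60 pmol sgRNA per guide, paired 1:1) nucleofected into primary DM1 patient myoblasts, then DMSO or 3 μM DNA-PKi Compound 6 for 48 h. At 72 h post-nucleofection cells fixed, FISH-stained with Cy3-PNA(CAG)5 probe plus anti-MBNL1 and Hoechst; % CUG foci-free nuclei by high-content confocal imaging.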

“SluU62 + SluD100 (guide 1 AGGACCCTTCGAGCCCCGTTCG; guide 2 GTCCAGAGCTTTGGGCAGATGG; guide RNA; listed as DNA, chemistry not fully specified)”: in data set [1], the “Excision efficiency (by ddPCR)” value amounted to 64.02 and the “Excision efficiency by ddPCR (Vehicle)” value is 37.11. In data set [2], the “% of CUG foci free nuclei (DNA-PKi)” value worked out at 88.35% and the “% of CUG foci free nuclei (Vehicle)” value is reported as 53.45%.

On to “SluU21 + SluD18 (guide 1 GCTCGGAGCGGTTGTGAACTGG; guide 2 TGGAGGATGGAACACGGACGGC; guide RNA; listed as DNA, chemistry not fully specified)”, for which, in data set [1], the “Excision efficiency (by ddPCR)” value is 65.52 and the “Excision efficiency by ddPCR (Vehicle)” value is 45.61. In data set [2], the “% of CUG foci free nuclei (DNA-PKi)” value was determined as 89.21% and the “% of CUG foci free nuclei (Vehicle)” value is 54.26%.

On to “SluU64 + SluD83 (guide 1 GGGCTCGAAGGGTCCTTGTAGC; guide 2 GTGGGGACAGACAATAAATACC; guide RNA; listed as DNA, chemistry not fully specified)”, for which, in data set [1], the “Excision efficiency (by ddPCR)” value came to 78.97 and the “Excision efficiency by ddPCR (Vehicle)” value is given as 55.22. For the same substance, in data set [2], the “% of CUG foci free nuclei (DNA-PKi)” value amounted to 90.63% and the “% of CUG foci free nuclei (Vehicle)” value is given as 76.55%.

For the substance “SluU21 + SluD83 (guide 1 GCTCGGAGCGGTTGTGAACTGG; guide 2 GTGGGGACAGACAATAAATACC; guide RNA; listed as DNA, chemistry not fully specified)”, in data set [1], the “Excision efficiency (by ddPCR)” value came to 63.44 and the “Excision efficiency by ddPCR (Vehicle)” value was found to be 37.42. In data set [2], the “% of CUG foci free nuclei (DNA-PKi)” value came out at 89.23% and the “% of CUG foci free nuclei (Vehicle)” value was found to be 51.65%.

Regarding “SluU64 + SluD73 (guide 1 GGGCTCGAAGGGTCCTTGTAGC; guide 2 CCAAAACGTGGATTGGGGTTGT; guide RNA; listed as DNA, chemistry not fully specified)”, in data set [1], the “Excision efficiency (by ddPCR)” value is given as 74.77 and the “Excision efficiency by ddPCR (Vehicle)” value is on record as 50.69. In data set [2], the “% of CUG foci free nuclei (DNA-PKi)” value is 91.02% and the “% of CUG foci free nuclei (Vehicle)” value stood at 70.19%.

In the case of “SluU08 + SluD100 (guide 1 GCCCCGTTGGAAGACTGAGTGC; guide 2 GTCCAGAGCTTTGGGCAGATGG; guide RNA; listed as DNA, chemistry not fully specified)”, in data set [1], the “Excision efficiency (by ddPCR)” value is 66.38 and the “Excision efficiency by ddPCR (Vehicle)” value was found to be 41.65. Moreover, in data set [2], the “% of CUG foci free nuclei (DNA-PKi)” value was found to be 88.59% and the “% of CUG foci free nuclei (Vehicle)” value is 66.31%.

For the substance “SluU21 + SluD48 (guide 1 GCTCGGAGCGGTTGTGAACTGG; guide 2 GAGAGCAGCGCAAGTGAGGAGG; guide RNA; listed as DNA, chemistry not fully specified)”, in data set [1], the “Excision efficiency (by ddPCR)” value was determined as 59.19 and the “Excision efficiency by ddPCR (Vehicle)” value is reported as 36.66. Moreover, in data set [2], the “% of CUG foci free nuclei (DNA-PKi)” value came out at 86.36% and the “% of CUG foci free nuclei (Vehicle)” value came out at 51.76%.

Consider “SluU62 + SluD68 (guide 1 AGGACCCTTCGAGCCCCGTTCG; guide 2 CCTGTAGCCTGTCAGCGAGTCG; guide RNA; listed as DNA, chemistry not fully specified)”, for which, in data set [1], the “Excision efficiency (by ddPCR)” value came out at 63.55 and the “Excision efficiency by ddPCR (Vehicle)” value was 33.08. Also, in data set [2], the “% of CUG foci free nuclei (DNA-PKi)” value was 87.71% and the “% of CUG foci free nuclei (Vehicle)” value is on record as 49.06%.

Turning to “SluU10 + SluD06 (guide 1 CCCGTTGGAAGACTGAGTGCCC; guide 2 CCAGGCTGAGGCCCTGACGTGG; guide RNA; listed as DNA, chemistry not fully specified)”, in data set [1], the “Excision efficiency (by ddPCR)” value is recorded as 63.05 and the “Excision efficiency by ddPCR (Vehicle)” value was determined as 48.58. Further, in data set [2], the “% of CUG foci free nuclei (DNA-PKi)” value was 86.35% and the “% of CUG foci free nuclei (Vehicle)” value is on record as 61.37%.

With “SluU63 + SluD48 (guide 1 GGGGCTCGAAGGGTCCTTGTAG; guide 2 GAGAGCAGCGCAAGTGAGGAGG; guide RNA; listed as DNA, chemistry not fully specified)”, in data set [1], the “Excision efficiency (by ddPCR)” value is listed as 94.25 and the “Excision efficiency by ddPCR (Vehicle)” value amounted to 63.77. In addition, in data set [2], the “% of CUG foci free nuclei (DNA-PKi)” value was determined as 90.03% and the “% of CUG foci free nuclei (Vehicle)” value came out at 73.73%.

In the case of “SluU08 + SluD06 (guide 1 GCCCCGTTGGAAGACTGAGTGC; guide 2 CCAGGCTGAGGCCCTGACGTGG; guide RNA; listed as DNA, chemistry not fully specified)”, in data set [1], the “Excision efficiency (by ddPCR)” value came out at 59.11 and the “Excision efficiency by ddPCR (Vehicle)” value amounted to 46.6. For the same substance, in data set [2], the “% of CUG foci free nuclei (DNA-PKi)” value is recorded as 86.69% and the “% of CUG foci free nuclei (Vehicle)” value is recorded as 59.22%.

On to “SluU63 + SluD32 (guide 1 GGGGCTCGAAGGGTCCTTGTAG; guide 2 CTTGTGCATGACGCCCTGCTCT; guide RNA; listed as DNA, chemistry not fully specified)”, for which, in data set [1], the “Excision efficiency (by ddPCR)” value is given as 94.81 and the “Excision efficiency by ddPCR (Vehicle)” value worked out at 60.75. For the same substance, in data set [2], the “% of CUG foci free nuclei (DNA-PKi)” value amounted to 89.04% and the “% of CUG foci free nuclei (Vehicle)” value is 75.26%.

Take “SluU62 + SluD56 (guide 1 AGGACCCTTCGAGCCCCGTTCG; guide 2 CCAGCCGGCTCCGCCCGCTTCG; guide RNA; listed as DNA, chemistry not fully specified)”: in data set [1], the “Excision efficiency (by ddPCR)” value is 61.21 and the “Excision efficiency by ddPCR (Vehicle)” value stood at 32.08. Also, in data set [2], the “% of CUG foci free nuclei (DNA-PKi)” value is given as 84.3% and the “% of CUG foci free nuclei (Vehicle)” value turned out to be 36.42%.

On to “SluU64 + SluD48 (guide 1 GGGCTCGAAGGGTCCTTGTAGC; guide 2 GAGAGCAGCGCAAGTGAGGAGG; guide RNA; listed as DNA, chemistry not fully specified)”, for which, in data set [1], the “Excision efficiency (by ddPCR)” value was 80.84 and the “Excision efficiency by ddPCR (Vehicle)” value is 47.67. In addition, in data set [2], the “% of CUG foci free nuclei (DNA-PKi)” value came to 88.44% and the “% of CUG foci free nuclei (Vehicle)” value was determined as 75.45%.

With “SluU59 + SluD68 (guide 1 CGCGGCCGGCGAACGGGGCTCG; guide 2 CCTGTAGCCTGTCAGCGAGTCG; guide RNA; listed as DNA, chemistry not fully specified)”, in data set [1], the “Excision efficiency (by ddPCR)” value is 65.42 and the “Excision efficiency by ddPCR (Vehicle)” value is 58.24. In addition, in data set [2], the “% of CUG foci free nuclei (DNA-PKi)” value amounted to 89.37% and the “% of CUG foci free nuclei (Vehicle)” value is 62.8125%.

As to “SluU10 + SluD34 (guide 1 CCCGTTGGAAGACTGAGTGCCC; guide 2 CGCGCCAGACGCTCCCCAGAGC; guide RNA; listed as DNA, chemistry not fully specified)”, in data set [1], the “Excision efficiency (by ddPCR)” value is 68.59 and the “Excision efficiency by ddPCR (Vehicle)” value was determined as 52.12. Moreover, in data set [2], the “% of CUG foci free nuclei (DNA-PKi)” value was determined as 88.63% and the “% of CUG foci free nuclei (Vehicle)” value is 80.9%.
